ChEMBL document CHEMBL1156984, “Synthesis and biological evaluation of piperazinyl heterocyclic antagonists of the gonadotropin releasing hormone (GnRH) receptor” (Bioorg Med Chem Lett, 2010)
Values after ≈ are worked out from the molar mass of the structure shown.

Legend:
[1] = molecular target: T1, Gonadotropin-releasing hormone receptor (Homo sapiens) (UniProt P30968); assay: Displacement of [125I]D-Trp6-GnRH from human recombinant GNRH receptor at 500 nM by scintillation counting
T1 sequence (whole entry): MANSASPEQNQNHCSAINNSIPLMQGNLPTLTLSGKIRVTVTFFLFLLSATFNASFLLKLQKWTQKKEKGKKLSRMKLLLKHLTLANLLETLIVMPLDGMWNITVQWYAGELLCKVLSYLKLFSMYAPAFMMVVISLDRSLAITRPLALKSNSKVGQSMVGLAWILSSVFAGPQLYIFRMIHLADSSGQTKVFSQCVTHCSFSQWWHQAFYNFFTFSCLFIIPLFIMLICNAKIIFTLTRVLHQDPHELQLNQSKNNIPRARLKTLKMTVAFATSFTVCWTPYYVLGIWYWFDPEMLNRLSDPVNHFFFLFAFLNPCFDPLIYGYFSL

[2] = molecular target: T2, Gonadotropin-releasing hormone receptor (Homo sapiens, UniProt P30968); assay: Antagonist activity at human recombinant GNRH receptor assessed as inhibition of D-Trp6-GNRH-induced IP accumulation after 1 hr by rapid filtration assay; assay type: functional
T2 sequence (P30968 whole entry): T1 sequence (whole entry)

Cytochrome P450 2D6 = Cytochrome P450 2D6 (Homo sapiens, UniProt P10635); assay: Inhibition of CYP2D6; assay type: ADME
Sequence of Cytochrome P450 2D6 (P10635 whole entry): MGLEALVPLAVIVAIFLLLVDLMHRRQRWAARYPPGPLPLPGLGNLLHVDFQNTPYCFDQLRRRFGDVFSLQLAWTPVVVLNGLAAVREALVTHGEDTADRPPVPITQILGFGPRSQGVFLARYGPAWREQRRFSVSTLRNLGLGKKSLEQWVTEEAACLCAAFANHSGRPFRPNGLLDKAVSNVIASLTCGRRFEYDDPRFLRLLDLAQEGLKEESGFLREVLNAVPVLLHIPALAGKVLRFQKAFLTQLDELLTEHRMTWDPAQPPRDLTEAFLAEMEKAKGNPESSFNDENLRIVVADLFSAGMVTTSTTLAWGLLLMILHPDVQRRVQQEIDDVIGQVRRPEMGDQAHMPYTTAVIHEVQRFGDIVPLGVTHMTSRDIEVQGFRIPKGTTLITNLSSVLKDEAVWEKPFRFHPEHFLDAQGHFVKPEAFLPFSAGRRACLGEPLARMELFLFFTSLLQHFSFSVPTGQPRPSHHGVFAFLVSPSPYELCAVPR

[3] = Solubility at pH 7.4; assay type: physicochemical; details: buffer
[4] = molecular target: T3, Gonadotropin-releasing hormone receptor (Rattus norvegicus, UniProt P30969); assay: Antagonist activity at GNRH receptor in rat pituitary cells assessed as inhibition of D-Trp6-GnRH-induced LH accumulation after 3 hrs by RIA; assay type: functional, cell-based, Pituitary gland cell
T3 sequence (P30969 whole entry): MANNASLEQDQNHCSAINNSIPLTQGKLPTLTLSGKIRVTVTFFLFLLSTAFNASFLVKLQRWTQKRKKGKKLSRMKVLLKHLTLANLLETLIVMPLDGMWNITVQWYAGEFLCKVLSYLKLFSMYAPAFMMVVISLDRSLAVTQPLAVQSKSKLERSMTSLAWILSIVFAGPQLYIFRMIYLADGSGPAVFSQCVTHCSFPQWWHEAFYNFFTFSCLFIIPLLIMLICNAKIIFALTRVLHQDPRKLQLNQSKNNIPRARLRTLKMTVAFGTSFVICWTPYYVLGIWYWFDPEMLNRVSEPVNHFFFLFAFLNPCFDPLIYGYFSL

[5] = molecular target: T3, Gonadotropin-releasing hormone receptor; assay: Displacement of [125I]D-Trp6-GnRH from rat recombinant GNRH receptor by scintillation counting
Cytochrome P450 3A4 = Cytochrome P450 3A4 (Homo sapiens, UniProt P08684); assay: Inhibition of CYP3A4; assay type: ADME
Sequence of Cytochrome P450 3A4 (P08684 whole entry): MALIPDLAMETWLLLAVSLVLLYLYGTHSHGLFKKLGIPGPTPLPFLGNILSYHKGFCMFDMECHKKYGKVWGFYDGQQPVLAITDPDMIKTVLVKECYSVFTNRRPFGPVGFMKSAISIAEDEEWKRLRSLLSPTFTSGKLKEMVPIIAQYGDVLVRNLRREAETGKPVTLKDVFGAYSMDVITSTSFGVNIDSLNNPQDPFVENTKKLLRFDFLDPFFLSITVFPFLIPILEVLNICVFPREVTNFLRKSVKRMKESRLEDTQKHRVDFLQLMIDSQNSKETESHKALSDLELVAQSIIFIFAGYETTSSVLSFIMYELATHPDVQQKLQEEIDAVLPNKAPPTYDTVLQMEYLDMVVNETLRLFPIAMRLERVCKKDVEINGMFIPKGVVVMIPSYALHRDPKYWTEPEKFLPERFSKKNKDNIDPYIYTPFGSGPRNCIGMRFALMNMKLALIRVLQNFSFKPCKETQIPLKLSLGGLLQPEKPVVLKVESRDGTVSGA

[6] = molecular target: T2, Gonadotropin-releasing hormone receptor; assay: Displacement of [125I]D-Trp6-GnRH from human recombinant GNRH receptor by scintillation counting
[7] = Permeability by PAMPA method; assay type: ADME; details: read-out: permeability
[8] = Half life in rat liver microsomes; assay type: ADME, Microsome
Cytochrome P450 2C9 = Cytochrome P450 2C9 (Homo sapiens, UniProt P11712); assay: Inhibition of CYP2C9; assay type: ADME
Sequence of Cytochrome P450 2C9 (P11712 whole entry): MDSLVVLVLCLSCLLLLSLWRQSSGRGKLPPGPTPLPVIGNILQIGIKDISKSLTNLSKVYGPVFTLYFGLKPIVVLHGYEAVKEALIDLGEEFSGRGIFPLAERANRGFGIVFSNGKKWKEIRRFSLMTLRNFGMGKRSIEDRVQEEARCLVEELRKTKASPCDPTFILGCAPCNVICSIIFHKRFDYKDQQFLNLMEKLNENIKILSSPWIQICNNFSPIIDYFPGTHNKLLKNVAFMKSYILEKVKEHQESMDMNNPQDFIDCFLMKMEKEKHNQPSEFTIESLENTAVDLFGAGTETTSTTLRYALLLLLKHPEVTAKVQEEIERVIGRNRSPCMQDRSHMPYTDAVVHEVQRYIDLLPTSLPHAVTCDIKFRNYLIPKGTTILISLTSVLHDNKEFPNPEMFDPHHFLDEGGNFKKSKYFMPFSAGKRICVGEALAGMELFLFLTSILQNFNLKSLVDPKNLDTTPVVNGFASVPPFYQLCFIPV

[9] = AUC (0 to infinity) in orchidectomized Sprague-Dawley rat at 30 mg/kg, po; assay type: ADME, organism-based; design: time infinity, dose 30 mg/kg, route oral; details: male, plasma
[10] = Half life in orchidectomized Sprague-Dawley rat at 30 mg/kg, po; assay type: ADME, organism-based; design: dose 30 mg/kg, route oral; details: male, in vivo
[11] = AUC (0 to infinity) in orchidectomized Sprague-Dawley rat at 1 mg/kg, iv; assay type: ADME, organism-based; design: time infinity, dose 1 mg/kg, route intravenous; details: male, plasma
[12] = Cmax in orchidectomized Sprague-Dawley rat at 1 mg/kg, iv; assay type: ADME, organism-based; design: dose 1 mg/kg, route intravenous; details: male, in vivo
[13] = Half life in orchidectomized Sprague-Dawley rat at 1 mg/kg, iv; assay type: ADME, organism-based; design: dose 1 mg/kg, route intravenous; details: male, in vivo
[14] = Cmax in orchidectomized Sprague-Dawley rat at 30 mg/kg, po; assay type: ADME, organism-based; design: dose 30 mg/kg, route oral; details: male, in vivo
[15] = Clearance in orchidectomized Sprague-Dawley rat at 3 mg/kg, iv; assay type: ADME, organism-based; design: dose 3 mg/kg, route intravenous; details: male, in vivo
[16] = Oral bioavailability in orchidectomized Sprague-Dawley rat at 30 mg/kg; assay type: ADME, organism-based; details: male, in vivo
[17] = Cmax in orchidectomized Sprague-Dawley rat at 3 mg/kg, iv; assay type: ADME, organism-based; design: dose 3 mg/kg, route intravenous; details: male, in vivo
[18] = Tmax in orchidectomized Sprague-Dawley rat at 30 mg/kg, po; assay type: ADME, organism-based; design: dose 30 mg/kg, route oral; details: male, in vivo
[19] = Volume of distribution at steady state in orchidectomized Sprague-Dawley rat at 3 mg/kg, iv; assay type: ADME, organism-based; design: dose 3 mg/kg, route intravenous; details: male, in vivo, read-out: Vdss
[20] = Half life in orchidectomized Sprague-Dawley rat at 3 mg/kg, iv; assay type: ADME, organism-based; design: dose 3 mg/kg, route intravenous; details: male, in vivo
[21] = AUC (0 to infinity) in orchidectomized Sprague-Dawley rat at 3 mg/kg, iv; assay type: ADME, organism-based; design: time infinity, dose 3 mg/kg, route intravenous; details: male, plasma

SMILES | IC50 [2] | solubility [3] | IC50 [4] | IC50 [5] | IC50 [6] | also measured
CCc1nc(CN2CCN(c3cccc4sc(-c5ccc(C(C)(C)C)cc5)nc34)CC2)c(C)[nH]1 | – | – | – | – | – | inhibition [1]: 70%
CCc1nc(CN2CCN(c3cccn4cc(-c5ccc(C(C)(C)C)cc5)nc34)CC2)c(C)[nH]1 | 60 nM | 3 µg/mL (≈ 6.57 µM) | 920 nM | 37 nM | 9.8 nM | inhibition (INH) (Cytochrome P450 2D6): 8%; inhibition (INH) (Cytochrome P450 3A4): 78%; Papp [7]: 0.2 ×10⁻⁶ cm/s; half-life [8]: 21 min; inhibition (INH) (Cytochrome P450 2C9): 6%
CCc1nc(CN2CCN(c3cccc4nc(-c5ccc(C(C)(C)C)cc5)cn34)CC2)c(C)[nH]1 | – | – | – | – | > 10000 nM | –
CC(C)(C)c1ccc(-c2nc3c(N4CCN(Cc5ccc6nccnc6c5)CC4)cccc3[nH]2)cc1 | – | – | 360 nM | 72 nM | – | –
CCc1nc(CN2CCN(c3ccnc4[nH]c(-c5ccc(C(C)(C)C)cc5)nc34)CC2)c(C)[nH]1 | – | – | – | – | – | inhibition [1]: 32%
CCc1nc(C)c(CN2CCN(c3cccc4[nH]c(-c5ccc(C(C)(C)C)cc5)nc34)CC2)[nH]1 | 18 nM | 20 µg/mL (≈ 43.8 µM) | 160 nM | 34 nM | 10 nM | –
CCc1nc(CN2CCN(c3cccc4nc(-c5ccc(C(C)(C)C)cc5)sc34)CC2)c(C)[nH]1 | – | – | – | – | > 10000 nM | –
CC(C)(C)c1ccc(-c2cn3cccc(N4CCN(Cc5c[nH]c(=O)[nH]c5=O)CC4)c3n2)cc1 | 20 nM | – | 4400 nM | 95 nM | 4.3 nM | –
CCc1nc(CN2CCN(c3cncc4[nH]c(-c5ccc(C(C)(C)C)cc5)nc34)CC2)c(C)[nH]1 | – | – | – | 290 nM | 58 nM | –
CC(C)(C)c1ccc(-c2cn3cccc(N4CCN(Cc5cnc6ccccc6n5)CC4)c3n2)cc1 | 39 nM | – | 1500 nM | 29 nM | 44 nM | –
CCn1cnc(CN2CCN(c3cccc4[nH]c(-c5ccc(C(C)(C)C)cc5)nc34)CC2)c1C | 15 nM | 3 µg/mL (≈ 6.57 µM) | 200 nM | – | 5.8 nM | AUC(0-inf) [9]: 3440 ng·h/mL; half-life [10]: 132 min; AUC(0-inf) [11]: 124 ng·h/mL; Cmax [12]: 458 ng/mL; Papp [7]: 2.7 ×10⁻⁶ cm/s; half-life [13]: 24 min; Cmax [14]: 533 ng/mL
CCn1cnc(CN2CCN(c3cccn4cc(-c5ccc(C(C)(C)C)cc5)nc34)CC2)c1C | 41 nM | 9 µg/mL (≈ 19.7 µM) | 420 nM | 12 nM | 6.7 nM | inhibition (INH) (Cytochrome P450 2D6): 9%; clearance [15]: 75.1 mL/min/kg; AUC(0-inf) [9]: 1950 ng·h/mL; bioavailability [16]: 28%; Cmax [17]: 1760 ng/mL; inhibition (INH) (Cytochrome P450 3A4): 54%; Tmax [18]: 48 min; half-life [10]: 66 min; Papp [7]: 1.1 ×10⁻⁶ cm/s; Vd [19]: 3.5 L/kg; half-life [8]: 11 min; half-life [20]: 84 min; Cmax [14]: 788 ng/mL; AUC(0-inf) [21]: 685 ng·h/mL; inhibition (INH) (Cytochrome P450 2C9): 10%
CCc1nc(CN2CCN(c3cccc4oc(-c5ccc(C(C)(C)C)cc5)nc34)CC2)c(C)[nH]1 | – | – | – | – | – | inhibition [1]: 61%
CCn1cc(CN2CCN(c3cccn4cc(-c5ccc(C(C)(C)C)cc5)nc34)CC2)c(=O)[nH]c1=O | 5 nM | 6 µg/mL (≈ 12.3 µM) | 260 nM | 5.7 nM | 2.3 nM | inhibition (INH) (Cytochrome P450 2D6): 0%; inhibition (INH) (Cytochrome P450 3A4): 54%; Papp [7]: 1.2 ×10⁻⁶ cm/s; half-life [8]: 6 min; inhibition (INH) (Cytochrome P450 2C9): 0%
CC(C)(C)c1ccc(-c2cn3cccc(N4CCN(Cc5ccc6nccnc6c5)CC4)c3n2)cc1 | 90 nM | – | 3400 nM | 81 nM | 47 nM | –
CCc1nc(CN2CCN(c3cccc4nc(-c5ccc(C(C)(C)C)cc5)oc34)CC2)c(C)[nH]1 | – | – | – | – | > 10000 nM | –
